Measured values: patent US10000765B2, “Gene encoding cytochrome P450, and use thereof” (NATIONAL INSTITUTE OF AGROBIOLOGICAL SCIENCES, priority 2011, dated 2018)

Experiments:
[1] = system: Wild-type rice (Nipponbare); experiment: Drug sensitivity test on gellan gum medium, wild-type rice; assay type: in vivo, Oryza sativa; details: plant height compared with drug-free medium
Method: Next, 1.6 g of Hoagland's mix (Sigma-Aldrich Corporation) and 3 g of Gelrite (Wako Pure Chemical Industries, Ltd.) were suspended in 1 L of distilled water. Then, the mixture was dissolved and heated in a microwave. After that, the mixture was cooled to 50 to 60 degree C., and BS was added at a final concentration of 1 μM. This mixture was dispensed into 30-mL tubular bottles at 15 mL to prepare a gellan gum medium. Next, CSSL rice paddies were soaked in 0.5% sodium hypochlorite for about 20 minutes, and were then washed well with water. These paddies were soaked in distilled water, and kept at 27 degree C. for 3 to 5 days for germination. Germinating seeds were softly planted in sprout-side up on the gellan gum medium. These samples, together with a beaker filled with distilled water, were placed in a transparent case, which was then covered with a clear-plastic wrap. These samples were grown at 27 degree C. under fluorescent light illumination (14 hours of a light period and 10 hours of a dark period) for 7 to 9 days.
According to the method of Example 1, a gellan gum medium containing a test drug at a concentration of 0.01, 0.1, 1, or 10 μM was prepared. Rice seeds were sterilized, germinated, seeded in the medium, and cultivated.

[2] = system: Nipponbare and Kasalath calluses with GFP overexpression construct; experiment: Callus growth test on BS-containing medium, GFP overexpression construct; assay type: cell-based, Oryza sativa; details: medium containing 0.25, 0.5, or 0.75 μM BS
Excerpt: According to Example 5, an HptII::35Spro::Kasalath CYP72A31::Tnos vector plasmid (pCAMBIA1390-KasCYP72A31, a kasCYP72A31 overexpression construct) or, as a control, an HptII::35Spro::sGFP::Tnos vector plasmid (pCAMBIA1390-sGFP, an sGFP overexpression construct) was introduced into a rice variety (cultivars: Nipponbare and Kasalath) by using an Agrobacterium method. Transformed calluses selected with 50 ppm hygromycin were isolated, and transplanted onto a bispyribac-sodium (BS)-containing medium to examine callus growth.

## COc1cc(OC)nc(Oc2cccc(Oc3nc(OC)cc(OC)n3)c2C(=O)O)n1 [BS, bispyribac sodium]
[1]; drug 0.01 μM
  CK ratio (%): 82%
[1]; drug 0.1 μM
  CK ratio (%): 64%
[1]; drug 1 μM
  CK ratio (%): 22%
[1]; drug 10 μM
  CK ratio (%): 3%
[2]
  Callus growth: inhibited their growth
